Source: PubChem BioAssay AID1259408 (Genetic Toxicology Data Bank (GENE-TOX), 2018)
Active and inactive are the calls of the source. How the calls were made is not given here.

Tested on: GENE-TOX genotoxicity assays, various organisms and cells
Experiment: GENE-TOX mutagenicity studies
Details: for call: Assay Type: In vivo carcinogenicity studies
Text: GENE-TOX provides genetic toxicology (mutagenicity) test data from expert peer review of open scientific literature for more than 3,000 chemicals from the United States Environmental Protection Agency (EPA). GENE-TOX was established to select assay systems for evaluation, review data in the scientific literature, and recommend proper testing protocols and evaluation procedures for these systems.
GENE-TOX covers the years 1991 - 1998. It is no longer updated.
This is an archive assay for GENE-TOX mutagenicity studies.

[1] = Species/Cell Type: Salmonella typhimurium (one or more of the five standard strains: TA98, TA100, TA1535, TA1537, and TA1538), Assay Type: Histidine reverse gene mutation, Ames assay, Assay Code: SALT, Evaluation Type: Evaluation A (Pre-1980)
[2] = Species/Cell Type: Nonhuman, Assay Code: CCG+, Evaluation Type: Evaluation A (Pre-1980)
[3] = Species/Cell Type: Human lymphocytes, Assay Type: Sister-chromatid exchange (SCE) in vitro, Assay Code: SCLT, Evaluation Type: Evaluation B (Post-1980)
[4] = Species/Cell Type: Human, Assay Type: Sister-chromatid exchange (SCE) in vitro, Assay Code: SC1T, Evaluation Type: Evaluation B (Post-1980)
[5] = Species/Cell Type: Chinese hamster lung (V79) cells, Assay Type: Forward gene mutation at the HPRT or ouabain locus, Assay Code: V79+, Evaluation Type: Evaluation A (Pre-1980)
[6] = Species/Cell Type: Drosophila melanogaster, Assay Type: Sex-linked recessive lethal gene mutation, Assay Code: SRLT, Evaluation Type: Evaluation A (Pre-1980)
[7] = Species/Cell Type: Nonhuman, Assay Type: Sister-chromatid exchange (SCE) in vitro, Assay Code: SC2+D, Dose Response: With dose response, Evaluation Type: Evaluation B (Post-1980)
[8] = Species/Cell Type: Salmonella typhimurium (one or more of the five standard strains: TA98, TA100, TA1535, TA1537, and TA1538), Assay Type: Histidine reverse gene mutation, Ames assay, Assay Code: SAL+*, Activation: With metabolic activation, Evaluation Type: Evaluation A (Pre-1980)
[9] = Species/Cell Type: Mouse, Sex: Male, Assay Type: Sperm morphology, Assay Code: SPI-, Evaluation Type: Evaluation A (Pre-1980)
[10] = Species/Cell Type: Nonhuman, Assay Code: CCG+L, Evaluation Type: Evaluation A (Pre-1980)
[11] = Species/Cell Type: Nonhuman, Assay Type: Sister-chromatid exchange (SCE) in vivo, Assay Code: SC3T, Evaluation Type: Evaluation B (Post-1980)
[12] = Species/Cell Type: Rodents, Sex: Male, Assay Type: Dominant lethal test, Assay Code: DLT-, Evaluation Type: Evaluation A (Pre-1980)
[13] = Species/Cell Type: Mammalian polychromatic erythrocytes, Assay Type: Micronucleus test, chromosome aberrations, Assay Code: MNTT, Evaluation Type: Evaluation B (Post-1980)

## Oc1cccc2c1cc1ccc3cccc4ccc2c1c34
Species/Cell Type: Chinese hamster lung (V79) cells, Assay Type: Forward gene mutation at the HPRT or ouabain locus, Assay Code: V79-*, Activation: With metabolic activation, Evaluation Type: Evaluation A (Pre-1980)
  mutagenic call: inactive; negative
Species/Cell Type: Nonhuman, Assay Code: CCGT, Evaluation Type: Evaluation A (Pre-1980)
  call: no conclusion
[1]
  mutagenic call: no conclusion

## CC(C)(C)Cl
Species/Cell Type: Escherichia coli polA (W3119 vs P3478), Assay Type: Rec-assay, DNA effects (bacterial DNA repair), Assay Code: RE1T, Evaluation Type: Evaluation A (Pre-1980)
  mutagenic call: no conclusion

## CCCCCCCCCCCCCCCC(=O)OC/C=C(C)/C=C/C=C(C)/C=C/C1=C(C)CCCC1(C)C
Species/Cell Type: Human, Assay Type: Sister-chromatid exchange (SCE) in vitro, Assay Code: SC1+D, Dose Response: With dose response, Evaluation Type: Evaluation A (Pre-1980)
  mutagenic call: active; positive

## C=Cc1cc(C)cc(C)c1
Species/Cell Type: Human lymphocytes, Assay Type: Sister-chromatid exchange (SCE) in vitro, Assay Code: SCL+D, Dose Response: With dose response, Evaluation Type: Evaluation B (Post-1980)
  mutagenic call: active; positive
Species/Cell Type: Human, Assay Type: Sister-chromatid exchange (SCE) in vitro, Assay Code: SC1+D, Dose Response: With dose response, Evaluation Type: Evaluation B (Post-1980)
  mutagenic call: active; positive

## CC(C)(Oc1ccc(C2CCCc3ccccc32)cc1)C(=O)O (configuration not stated)
[2]
  call: active; positive

## Cn1c(=O)c2c(ncn2CC(O)CO)n(C)c1=O (configuration not stated)
[3]
  mutagenic call: no conclusion
[4]
  mutagenic call: no conclusion

## O=O
[5]
  mutagenic call: active; positive

## COc1cc2c(c3oc(=O)c4c(c13)CCOC4=O)C1C=COC1O2 (configuration not stated)
Species/Cell Type: Aspergillus nidulans, Assay Type: Forward gene mutation, Assay Code: ASF+*, Activation: With metabolic activation, Evaluation Type: Evaluation A (Pre-1980)
  mutagenic call: active; positive
[6]
  mutagenic call: no conclusion
Species/Cell Type: Drosophila melanogaster, Sex: Male, Assay Type: Heritable translocation test, chromosome aberrations, Assay Code: DHTT, Evaluation Type: Evaluation A (Pre-1980)
  mutagenic call: no conclusion
Species/Cell Type: Human lymphocytes or leukocytes, Assay Type: Chromosome aberrations in vitro, Assay Code: CY7T, Evaluation Type: Evaluation A (Pre-1980)
  mutagenic call: no conclusion
Species/Cell Type: Vicia faba, Assay Type: Chromosome aberrations, Assay Code: VIC+, Evaluation Type: Evaluation A (Pre-1980)
  mutagenic call: active; positive

## Cc1cc(=O)oc2cc(O)ccc12
Species/Cell Type: Allium cepa, Assay Type: Chromosome aberrations, Assay Code: ALC+, Evaluation Type: Evaluation A (Pre-1980)
  mutagenic call: active; positive

## N#CS
Species/Cell Type: Glycine max (soybean), Assay Type: Gene mutation, Assay Code: GLM-, Evaluation Type: Evaluation A (Pre-1980)
  mutagenic call: inactive; negative
[1]
  mutagenic call: no conclusion

## C=CC#N
[6]
  mutagenic call: no conclusion
Species/Cell Type: Escherichia coli WP2, Assay Type: Tryptophan reverse gene mutation, Assay Code: WP2+D, Dose Response: With dose response, Evaluation Type: Evaluation A (Pre-1980)
  mutagenic call: active; positive
Species/Cell Type: Escherichia coli WP2 UVRA, Assay Type: Tryptophan reverse gene mutation, Assay Code: WPU+, Evaluation Type: Evaluation A (Pre-1980)
  mutagenic call: active; positive
Species/Cell Type: Mammalian polychromatic erythrocytes, Assay Type: Micronucleus test, chromosome aberrations, Assay Code: MNT-, Evaluation Type: Evaluation B (Post-1980)
  mutagenic call: inactive; negative
[2]
  call: active; positive
[7]
  mutagenic call: active; positive
Species/Cell Type: Nonhuman, Assay Type: Sister-chromatid exchange (SCE) in vivo, Assay Code: SC3+D, Dose Response: With dose response, Evaluation Type: Evaluation B (Post-1980)
  mutagenic call: active; positive
[8]
  mutagenic call: active; positive
Species/Cell Type: Syrian hamster embryo (SA7/SHE) cells, Assay Type: Cell transformation, viral enhanced, Assay Code: CT7+, Evaluation Type: Evaluation A (Pre-1980)
  mutagenic call: active; positive
Species/Cell Type: Syrian hamster embryo (SHE) cells, Assay Type: Cell transformation, focus assay, Assay Code: CTF+, Evaluation Type: Evaluation A (Pre-1980)
  mutagenic call: active; positive

## [O-][Br+2]([O-])O
Species/Cell Type: Mammalian polychromatic erythrocytes, Assay Type: Micronucleus test, chromosome aberrations, Assay Code: MNT+, Evaluation Type: Evaluation B (Post-1980)
  mutagenic call: active; positive

## NNC(=O)c1ccncc1
Species/Cell Type: Human, Assay Type: Sister-chromatid exchange (SCE) in vitro, Assay Code: SC1+, Evaluation Type: Evaluation B (Post-1980)
  mutagenic call: active; positive
Species/Cell Type: Mammalian germ cells, Sex: Male, Assay Type: Chromosome aberrations in vivo, Assay Code: CY9T, Evaluation Type: Evaluation A (Pre-1980)
  mutagenic call: no conclusion
Species/Cell Type: Mammalian oocytes or early embryo, Assay Type: Chromosome aberrations in vivo, Assay Code: CYO-, Evaluation Type: Evaluation A (Pre-1980)
  mutagenic call: inactive; negative
Species/Cell Type: Mouse, Sex: Female, Assay Type: Spot test, gene mutation, Assay Code: MSTT, Evaluation Type: Evaluation A (Pre-1980)
  mutagenic call: no conclusion
[9]
  mutagenic call: inactive; negative
[10]
  call: active; positive
[7]
  mutagenic call: active; positive
[11]
  mutagenic call: no conclusion
Species/Cell Type: Rabbit, Sex: Male, Assay Type: Sperm morphology, Assay Code: SPR-, Evaluation Type: Evaluation A (Pre-1980)
  mutagenic call: inactive; negative
[12]
  mutagenic call: inactive; negative
Species/Cell Type: Salmonella typhimurium, Assay Type: Forward and reverse gene mutation, body fluid assay, Assay Code: BFUT, Evaluation Type: Evaluation A (Pre-1980)
  mutagenic call: no conclusion
Species/Cell Type: Salmonella typhimurium, Assay Type: Forward and reverse gene mutation, host-mediated assay, Assay Code: HMA+, Evaluation Type: Evaluation A (Pre-1980)
  mutagenic call: active; positive

## CC1CCOS1(=O)=O (configuration not stated)
Species/Cell Type: Schizosaccharomyces pombe, Assay Type: Reverse gene mutation, Assay Code: YEZ+, Evaluation Type: Evaluation A (Pre-1980)
  mutagenic call: active; positive

## NCC(=O)CCC(=O)O
[12]
  mutagenic call: inactive; negative

## O=S(O)S(=O)O
[3]
  mutagenic call: no conclusion
[4]
  mutagenic call: no conclusion

## O=C(NCCCCCCCCNC(=O)C(Cl)Cl)C(Cl)Cl
Species/Cell Type: Human, Sex: Male, Assay Type: Sperm morphology, Assay Code: SPH+, Evaluation Type: Evaluation A (Pre-1980)
  mutagenic call: active; positive

## CCCCCN(CCCCO)N=O
[8]
  mutagenic call: active; positive

## Oc1cc(Cl)ccc1Oc1ccc(Cl)cc1Cl
[13]
  mutagenic call: no conclusion
Species/Cell Type: Mouse, Sex: Female, Assay Type: Spot test, gene mutation, Assay Code: MST-, Evaluation Type: Evaluation A (Pre-1980)
  mutagenic call: inactive; negative
Species/Cell Type: Saccharomyces cerevisiae, Assay Type: Forward gene mutation, Assay Code: YEF+, Evaluation Type: Evaluation A (Pre-1980)
  mutagenic call: active; positive
Species/Cell Type: Saccharomyces cerevisiae, Assay Type: Mitotic recombination or gene conversion, Assay Code: YEC-, Evaluation Type: Evaluation A (Pre-1980)
  mutagenic call: inactive; negative
Species/Cell Type: Saccharomyces cerevisiae, Assay Type: Mitotic recombination or gene conversion, Assay Code: YEH+, Evaluation Type: Evaluation A (Pre-1980)
  mutagenic call: active; positive

## COc1ccccc1[N+](=O)[O-]
[1]
  mutagenic call: no conclusion

## NC(=O)N(CCC[C@H](N)C(=O)O)N=O
Species/Cell Type: Salmonella typhimurium (one or more of the five standard strains: TA98, TA100, TA1535, TA1537, and TA1538), Assay Type: Histidine reverse gene mutation, Ames assay, Assay Code: SAL+, Evaluation Type: Evaluation A (Pre-1980)
  mutagenic call: active; positive

## C1CC2OC2C2OC12 (configuration not stated)
Species/Cell Type: Neurospora crassa, Assay Type: Forward gene mutation, Assay Code: NEF-, Evaluation Type: Evaluation A (Pre-1980)
  mutagenic call: inactive; negative

## COC(=O)[C@@]12Oc3ccc(-c4ccc5c(c4O)C(O)=C4C(=O)C[C@H](C)[C@@H](O)[C@]4(C(=O)OC)O5)c(O)c3C(O)=C1C(=O)C[C@H](C)[C@H]2O
[1]
  mutagenic call: no conclusion

## Nc1ccc(Oc2ccc(N)cc2)cc1
[2]
  call: active; positive
[11]
  mutagenic call: no conclusion

## O=C1c2ccccc2C(=O)c2c(O[C@@H]3O[C@H](CO)[C@@H](O)[C@H](O)[C@H]3O)ccc(O)c21
[8]
  mutagenic call: active; positive

## CCN(CC)c1nc(C)cc(OP(=S)(OC)OC)n1
[13]
  mutagenic call: no conclusion

## COc1cc2c[n+](C)c3c4cc5c(cc4ccc3c2cc1OC)OCO5
[1]
  mutagenic call: no conclusion

## O[C@@H]1C=Cc2c(ccc3cc4ccccc4cc23)[C@H]1O
[5]
  mutagenic call: active; positive
[10]
  call: active; positive
[7]
  mutagenic call: active; positive
[8]
  mutagenic call: active; positive

## Nc1ccc(F)cc1
[9]
  mutagenic call: inactive; negative
